Test results taken from paper PMC9562916, “Investigation of the Phenolic Component Bioavailability Using the In Vitro Digestion/Caco-2 Cell Model, as well as the Antioxidant Activity in Chinese Red Wine” (Foods, 2022).
Where two headings read alike, the source gives them in different places. Marks after values point to notes of the source that are not given here.

Legend:
[1] = PC content of red wine before and after in vitro simulated gastrointestinal digestion (HPLC); type: in vitro ADME; settings: for PC Contents, Cabernet, After Digestion: Cabernet red wine; for PC Contents, Cabernet, After Digestion / PC Contents, Helanshan, After Digestion / PC Contents, Tianzhu, After Digestion: after simulated gastrointestinal digestion; for PC Contents, Helanshan, After Digestion: Helanshan red wine
Experimental: The digestion procedure was carried out by adapting the method of Brodkorb et al. and Gómez et al.. […] One milliliter (50 units/mL) of porcine amylase was prepared in a 15 mM Na₃PO₄ buffer solution (pH adjusted to 6.8) containing 1.5 mM CaCl2, and it was added to the red wine solution. After 5 min, 4.5 mL of 0.12 M HCl was added to the mixture to adjust the pH to 2.4. One milliliter of porcine pepsin (0.02 mg/L) was dissolved in a 20 mM HCl solution. The mixture was then maintained at 37 °C for 120 min. The digestion mixture was then centrifuged at 8000× g for 15 min to obtain samples from the gastric digestion phase. […] The mixture was incubated at pH 6.5 at 37 °C for 3 h before being centrifuged. The extracts of the intestinal phase were the supernatants. The same operation was done three times, and each sample was stored in a refrigerator (−20 °C) immediately for further analysis.
The Pati method was adopted, with slight modifications, to measure the content of the PCs. The Agilent 1100 series HPLC instrument was used; it was equipped with a degasser, quaternary pump solvent delivery, a DAD system, and a single quadrupole mass detector coupled with an electrospray ionization LC–MS interface. Briefly, th samples were injected into a Zorbax SB C18 reversed-phase column (5 µm,150 × 2.1 mm, Agilent Technologies, Santa Clara, CA, USA) using an autosampler after filtering through 0.45 µm cellulose acetate syringe filters. The column temperature was kept at 30 °C, the injection volume was 10 µL, and the flow rate was 0.3 mL/min. The eluents were water and formic acid in a 99:1 (v/v) (A) ratio and 100% acetonitrile (B). […] The MS configuration was as follows: ESI, negative ion mode, nebulizer pressure of 30 psi, a dry gas flow rate of 10 mL/min, dry gas temperature of 350 °C, and a scan rate of 100~1200 m/z. PCs were determined according to their retention times, UV/VIS spectra, and high-resolution MS spectra, in addition to a comparison with the standards. […] Putative annotations were made using spectral features and literature information on the chromatographic properties and mass spectra records from the metabolome database. A standard curve was drawn using methanol solutions with different concentrations as the standards. The limits of detection and quantitation were calculated according to the signal-to-noise ratio (limit of detection: signal-to-noise ratio ≥ 3; limit of quantitation: signal-to-noise ratio ≥ 10). […] PCs All of the samples were determined in triplicate.

Caco-2 cell monolayer = test: Caco-2 transepithelial transport assay of digested red wine; type: in vitro ADME, human; settings: digested sample, basolateral side of Caco-2 monolayer; for PC Contents, Cabernet, Transmembrane: Cabernet red wine; for PC Contents, Helanshan, Transmembrane: Helanshan red wine; for PC Contents, Tianzhu, Transmembrane: Tianzhu red wine
Experimental: (§1) Caco-2 cells were inoculated following the method of Hubatsch et al. […] Briefly, a 5% v/v of CO2 incubator at 37 °C was used to house the cells. […] Caco-2 cells were sub-cultured when they reached 80-90% of the adherent growth by treating them with a 0.05% v/v of trypsin-EDTA solution. The culture between passages 35 and 40 was used for the following experiment. Transport experiments were performed according to the method of Wu et al. with slight modifications. First, 1.0 × 10^5 Caco-2 cells were inoculated onto 12 mm transparent cell culture plates (Transwell). Media were carefully injected into the apical (0.5 mL) and basolateral (1.5 mL) sides of the Transwell plates. The cell culture medium had to be replaced every other day until the cells formed a monolayer. The integrity and transport ability of the Caco-2 cell monolayer were evaluated by measuring the trans-epithelial electrical resistance (TEER) with a MilliCell voltammeter (Millicell ERS-2, Merck Millipore, Billerica, MA, USA). […] When the cell activity exceeded 0.9, a transport experiment was conducted. The apical side was injected with a digested red wine sample (0.5 mL) and was thoroughly mixed with […] Balanced Salt Solution (HBSS) buffer solution. […] The cells were then cultured in a 37 °C, 5% CO2 incubator. Then, 0.25 mL samples were separately taken from the basolateral side of the monolayer. An equal volume of HBSS buffer was then added every half hour from the beginning of the culture until the end of the culture at 6 h. The collected samples were subsequently filtered and placed in the sample bottle for further HPLC analysis. This experiment was repeated several times to collect enough samples for the next antioxidant test. […] The Agilent 1100 series HPLC instrument was used; it was equipped with a degasser, quaternary pump solvent delivery, a DAD system, and a single quadrupole mass detector coupled with an electrospray ionization LC-MS interface. […] The column temperature was kept at 30 °C, the injection volume was 10 μL, and the flow rate was 0.3 mL/min. The eluents were water and formic acid in a 99:1 (v/v) (A) ratio and 100% acetonitrile (B). The gradient elution procedure was as follows: (1) 3% B solvent at 0 min, (2) 3 to 16% B solvent at 10 min, (3) 16 to 20% B solvent at 30 min, and (4) 20% B solvent maintained until the procedure was completed. The MS configuration was as follows: ESI, negative ion mode, nebulizer pressure of 30 psi, a dry gas flow rate of 10 mL/min, dry gas temperature of 350 °C, and a scan rate of 100~1200 m/z. PCs were determined according to their retention times, UV/VIS spectra, and high-resolution MS spectra, in addition to a comparison with the standards. […] If a standard was unavailable, a structurally related compound was used. Putative annotations were made using spectral features and literature information on the chromatographic properties and mass spectra records from the metabolome database. A standard curve was drawn using methanol solutions with different concentrations as the standards. […] PCs All of the samples were determined in triplicate.

[2] = as above; type: in vitro ADME, human; settings: human
Experimental: as §1

[3] = Caco-2, apical to basolateral, digested Cabernet red wine, read-out: Apparent Permeability Coefficients, Cabernet
[4] = Caco-2, apical to basolateral, digested Helanshan red wine, read-out: Apparent Permeability Coefficients, Helanshan
[5] = Caco-2, apical to basolateral, digested Tianzhu red wine, read-out: Apparent Permeability Coefficients, Tianzhu

SMILES | PC Contents, Cabernet, After Digestion [1] | PC Contents, Helanshan, After Digestion [1] | PC Contents, Tianzhu, After Digestion ([1]; Tianzhu red wine) | PC Contents, Cabernet, Transmembrane (Caco-2 cell monolayer) | PC Contents, Helanshan, Transmembrane (Caco-2 cell monolayer) | PC Contents, Tianzhu, Transmembrane (Caco-2 cell monolayer) | Papp at 6 h [2, 3] [×10⁻⁶ cm/s] | Papp at 6 h [2, 4] [×10⁻⁶ cm/s] | Papp at 6 h [2, 5] [×10⁻⁶ cm/s] | bioavailability ([2]; Caco-2) [%] | Papp at 6 h ([2]; Caco-2, Apparent Permeability Coefficients, Cabernet) [×10⁻⁶ cm/s] | Papp at 6 h ([2]; Caco-2, Apparent Permeability Coefficients, Helanshan) [×10⁻⁶ cm/s] | Papp at 6 h ([2]; Caco-2, Apparent Permeability Coefficients, Tianzhu) [×10⁻⁶ cm/s] | Increase in content after digestion ([1]; Tianzhu red wine, after digestion vs undigested) [%]
C[C@@H]1O[C@@H](O[C@H]2C(=O)c3c(O)cc(O)cc3O[C@@H]2c2ccc(O)c(O)c2)[C@H](O)[C@H](O)[C@H]1O [Astilbin] | 28.22 ± 1.07 ^b mg/L | 24.63 ± 1.13 ^b mg/L | 25.36 ± 1.32 ^b mg/L | 1.11 ± 0.05 ^a mg/L | 0.93 ± 0.04 ^a mg/L | 5.05 ± 0.19 ^a mg/L | 2.46 ± 0.23 | 2.37 ± 0.34 | 2.41 ± 0.26 | – | – | – | – | –
O=C(/C=C/c1ccc(O)c(O)c1)O[C@@H](C(=O)O)[C@@H](O)C(=O)O [Caftaric acid] | 3.01 ± 0.17 ^b mg/L | – | 5.35 ± 0.23 ^b mg/L | 0.43 ± 0.01 ^a mg/L | 0.49 ± 0.02 ^a mg/L | 1.07 ± 0.03 ^a mg/L | 8.93 ± 1.02 | 8.77 ± 1.28 | 8.45 ± 1.31 | – | – | – | – | –
CCOC(=O)c1cc(O)c(O)c(O)c1 [Ethyl gallate] | 38.42 ± 1.88 ^b mg/L | 30.18 ± 0.94 ^b mg/L | 40.83 ± 1.51 ^b mg/L | 10.70 ± 0.33 ^a mg/L | 8.64 ± 0.36 ^a mg/L | 8.13 ± 0.28 ^a mg/L | 17.4 ± 2.73 | 17.9 ± 2.88 | 18.3 ± 3.02 | – | – | – | – | –
O=C(O)c1cc(O)c(O)c(O)c1 [Gallic acid] | 9.08 ± 0.44 ^b mg/L | – | 6.91 ± 0.26 ^b mg/L | 4.61 ± 0.23 ^a mg/L | 2.53 ± 0.14 ^a mg/L | 1.38 ± 0.05 ^a mg/L | – | – | – | 24 | 31.7 ± 3.82 | 30.9 ± 3.99 | 32.8 ± 4.13 | –
O=c1c(O[C@@H]2O[C@H](CO)[C@@H](O)[C@H](O)[C@H]2O)c(-c2ccc(O)c(O)c2)oc2cc(O)cc(O)c12 [Isoquercetin] | 13.46 ± 0.59 ^b mg/L | 12.01 ± 0.37 ^b mg/L | 19.13 ± 0.69 ^b mg/L | 0.83 ± 0.04 ^a mg/L | 0.72 ± 0.04 ^a mg/L | 3.81 ± 0.18 ^a mg/L | 3.84 ± 0.29 | 3.73 ± 0.27 | 3.87 ± 0.23 | – | – | – | – | 9.8
